The source of these data is US4322439A, “ω-[2-(N-Lower alkyl-benzamido)-phenyl]-alkanoic acids, their use, and medicaments containing them” (BYK Gulden Lomberg Chemische Fabrik GmbH, priority 1978, dated 1982).

Data set [1] has as its system isolatedly perfused rat liver. As to the kind of experiment: Inhibition of glucose formation (from lactate and pyruvate) on the isolatedly perfused rat liver. Further details: species or system Sprague-Dawley rats. As to conditions: for D: ID50 (inhibition of the glucose formation from lactate and pyruvate by 50%): isolatedly perfused rat liver, concentration in the perfusate. The method, then: The values in column D show the concentrations (ID50 mmol/l) of the substances in the perfusate, which bring about on the isolatedly perfused rat liver an inhibition of the glucose formation from lactat and pyruvat by 50%.
2. Inhibition of Glucose Formation on the Isolatedly Perfused Rat Liver
Young male Sprague-Dawley rats (160-200 g) are used. The animals are kept as described under 1.
Food is withdrawn from the animals 20-22 hours before the operation. Water uptake occurs ad libitum. Operation and perfusion of the liver are effected according to the technique of R. Scholz et al. [Eur. J. Biochem. 38 (1973) 64-72]. As perfusion liquids, Krebs-Henseleit biocarbonate buffer (pH 7.4) is used which is saturated with an oxygen/carbon dioxide mixture (95/5) and contains 1.6 mmoles/liter L-lactates and 0.2 mmole/liter pyruvate. The perfusion liquid is pumped into the liver via a cannula introduced into the portal vein. The perfusion liquid emerging is collected via a cannula introduced into the vena cava and then taken past an oxygen electrode. The liver is perfused for about 2 hours. The test compounds are infused from the 32nd to 80th minute of the perfusion, with increasing concentrations (0.01, 0.03, 0.10 mmol/l).
Samples of the emerged perfusion liquid are collected at one-minute intervals and analysed for glucose, lactate and pyruvate according to enzymatic standard methods. The oxygen content is continuously determined by means of a platinum electrode. The check constants (ID50) stated in Table I refer to the state which exists before and after addition of the compounds; the changes caused alone through lactate and pyruvate were set at 100%.

The subject of data set [2] is fasting, metabolically healthy rats. As to the kind of experiment: Blood glucose determination after single oral application (fasting, metabolically healthy rats). In kind it is in vivo, Sprague-Dawley rats. The following applies: for ED50: read-out: B: ED50 (dose which effects a lowering of the blood glucose concentration by at least 15% in 50% of the animals); for A: Change of the blood glucose concentration (maximal, with reference to control animals): single oral administration 0.6 to 1.0 mmole/kg, maximal change within 24 hours. The method, then:
In Table I there are reproduced investigations of the influence of representatives of the compounds according to the invention on the blood glucose concentration of fasting, metabolically healthy rats after single oral administration of substance of 0.6 to 1.0 mmole/kg body weight within 24 hours. Column A states in each case the maximal lowering in % with reference to the control group within 24 hours after application of the compounds.
1. Blood Glucose Determination After Single Oral Application
Young male Sprague-Dawley rats (body weight 160-200 g) are used. The animals are kept in makralon cages with up to 5 animals per cage [room-temperature 23° C., humidity of the atmosphere 55%, fixed day/night rhythm (12/12 h), rat standard diet Altromin^R ].
Food is withdrawn from the animals 20-22 hours before the taking of the 1st blood sample. Water uptake occurs ad libitum. Blood samples are taken at intervals of 0, 2, 6 and 24 hours through puncture from the postorbital plexus.
After deproteinisation with perchloric acid, the blood glucose determination is effected by means of the enzymatic HK/G-6-POH method according to R. Richterich [Klinische Chemie, Theorie und Praxis, 3rd Edition, 1971, S. Karger Verlag, Zuerich-Basle, page 275].
For comparison, in each case a control group treated with pure solvent is also investigated.

Another data set can be described thus: in vivo. As to conditions: mouse. The method, then: 3. Determination of the toxicity
The toxicity investigations were carried out on female NMRI mice (body weight 22-26 g). The animals (5 animals per dose) receive, 18 hours before the treatment, the food (Altromin®) reduced to 50 g/50 animals and water ad libitum. Various doses of the substances are administered per os or intraperitoneal (volume 20 ml/kg). The duration of observation is 7 days. The DL50, i.e. the dose at which 50% of the animals die, is determined graphically from the dose effect curve.

Where [3] appears, read: rat, single oral administration, with reference to control group.
Where [4] appears, read: ip, i.p., read-out: C: LD50 (i.p.).

Structures are written as SMILES. Like-named read-outs stand apart in the source and are kept apart here.

For `CCCCNC(=N)NC(=N)N` [Serial No. 1, buformin, reference compound], in data set [1], the “inhibition of the glucose formation from lactate and pyruvate in the liver (in words)” value is recorded as “no inhibition”; the “D: ID50 (inhibition of the glucose formation from lactate and pyruvate by 50%)” value is “ineffective”. Also, the ED50 in data set [2] (Rattus norvegicus, po) amounted to 227 mg/kg. In addition, the “A: Change of the blood glucose concentration (maximal, with reference to control animals)” value (“A: Change” for short) in data set [2] (rat) is listed as -20%.
Consider `[H]/N=C(/N)N/C(=N/[H])NCCc1ccccc1` [Serial No. 2, phenformin], for which, in data set [1], the “inhibition of the glucose formation from lactate and pyruvate in the liver (in words)” value was “no inhibition”; the “D: ID50 (inhibition of the glucose formation from lactate and pyruvate by 50%)” value is “ineffective”. In addition, the “A: Change” value in data set [2] (rat) is given as -2%.
In the case of `CN(C(=O)c1ccccc1)c1ccccc1CCCC(=O)O` [Serial No. 3, 4-[2-(N-methylbenzamido)-phenyl]-butyric acid], the “A: Change” value in data set [2] (rat) is reported as -27%. In addition, the ED50 in data set [2] (setting [3]) came to 205 mg/kg.
For `CN(C(=O)c1ccc(Cl)cc1)c1ccccc1CCC(=O)O` [Serial No. 4, 3-[2-(N-methyl-4-chlorobenzamido)-phenyl]-propionic acid] the same measures were -16% and 426 mg/kg.
A word on the LD50: it is the dose at which mortality reaches 50%. Turning to `CN(C(=O)c1ccc(Cl)c(Cl)c1)c1ccccc1CCC(=O)O` [Serial No. 5, 3-[2-(N-methyl-3,4-dichlorobenzamido)-phenyl]-propionic acid], in “in vivo” (po, per os, read-out: C: LD50), the LD50 at 168 h came out at 1100 mg/kg. For the same compound, in data set [2] (rat), the “A: Change” value is -11%. Further, the ED50 in data set [2] (setting [3]) came to 363 mg/kg.
Take `CN(C(=O)c1ccccc1)c1ccccc1CCC(=O)O` [Serial No. 6, 3-[2-(N-methylbenzamido)-phenyl]-propionic acid]: the LD50 at 168 h in “in vivo” (po, per os, read-out: C: LD50) amounted to 970 mg/kg. In data set [2] (rat), the “A: Change” value is recorded as -26%. The ED50 in data set [2] (setting [3]) was 221 mg/kg.
Turning to `CN(C(=O)c1ccc(Cl)c(Cl)c1)c1ccc(Cl)cc1CCC(=O)O` [Serial No. 7, 3-[5-chloro-2-(N-methyl-3,4-dichlorobenzamido)-phenyl]-propionic acid], the LD50 at 168 h in “in vivo” (po, per os, read-out: C: LD50) was more than 1000 mg/kg. For the same compound, the “A: Change” value in data set [2] (rat) was -15%.
As for `CN(C(=O)c1cccc(C(F)(F)F)c1)c1ccc(Cl)cc1CCC(=O)O` [Serial No. 8, 3-[5-chloro-2-(N-methyl-3-trifluoromethylbenzamido)-phenyl]-propionic acid], in “in vivo” (po, per os, read-out: C: LD50), the LD50 at 168 h is more than 1000 mg/kg. The “A: Change” value in data set [2] (rat) is listed as -26%. Also, the ED50 in data set [2] (setting [3]) is 185 mg/kg.
In the case of `CN(C(=O)c1ccc(Cl)cc1)c1ccccc1CCCC(=O)O` [Serial No. 9, 4-[2-(N-methyl-4-chlorobenzamido)-phenyl]-butyric acid], the LD50 at 168 h in the data set “in vivo” (po, per os, read-out: C: LD50) was more than 1000 mg/kg. The “A: Change” value in data set [2] (rat) was -24%. Also, in data set [2] (setting [3]), the ED50 was determined as 103 mg/kg.
Consider `CN(C(=O)c1ccc(Cl)c(Cl)c1)c1ccccc1CCCC(=O)O` [Serial No. 10, 4-[2-(N-methyl-3,4-dichlorobenzamido)-phenyl]-butyric acid], for which the LD50 at 168 h in “in vivo” (setting [4]) turned out to be 250 mg/kg. For the same compound, in data set [2] (rat), the “A: Change” value was -17%. Further, in data set [2] (setting [3]), the ED50 stood at 198 mg/kg.
For the compound `CN(C(=O)c1ccc(Cl)cc1Cl)c1ccccc1CCCC(=O)O` [Serial No. 11, 4-[2-(N-methyl-2,4-dichlorobenzamido)-phenyl]-butyric acid], the LD50 at 168 h in the data set “in vivo” (po, per os, read-out: C: LD50) is more than 1000 mg/kg. Besides, the “A: Change” value in data set [2] (rat) is reported as -17%. Besides, the ED50 in data set [2] (setting [3]) was 245 mg/kg.
As for `CN(C(=O)c1cccc(C(F)(F)F)c1)c1ccccc1CCCC(=O)O` [Serial No. 12, 4-[2-(N-methyl-3-trifluoromethylbenzamido)-phenyl]-butyric acid], the LD50 at 168 h in the data set “in vivo” (setting [4]) turned out to be 150 mg/kg. Further, the “A: Change” value in data set [2] (rat) is recorded as -20%. For the same compound, the ED50 in data set [2] (setting [3]) was 278 mg/kg.
`COc1cccc(N(C)C(=O)c2ccc(Cl)cc2)c1CCCC(=O)O` [Serial No. 13, 4-[6-methoxy-2-(N-methyl-4-chlorobenzamido)-phenyl]-butyric acid]: the “A: Change” value in data set [2] (rat) is listed as -14%. Also, in data set [2] (setting [3]), the ED50 is more than 500 mg/kg.
For `COc1ccc(N(C)C(=O)c2ccc(Cl)c(Cl)c2)c(CCCC(=O)O)c1` [Serial No. 14, 4-[5-methoxy-2-(N-methyl-3,4-dichloro-benzamido)-phenyl]-butyric acid], the “A: Change” value in data set [2] (rat) is given as -21%.
Consider `CN(C(=O)c1ccc(Cl)c(Cl)c1)c1ccccc1CCCCC(=O)O` [Serial No. 15, 5-[2-(N-methyl-3,4-dichlorobenzamido)-phenyl]-valeric acid], for which, in data set [2] (rat), the “A: Change” value is reported as -5%. The ED50 in data set [2] (setting [3]) is more than 700 mg/kg.
